The nature of this data set: Solubility pH 7. As to conditions: for solubility: pH 7, aqueous buffer.

Values after ≈ are worked out from the molar mass of the structure shown.

Usually solubility stands for the dissolved amount per volume that the medium holds. High values mean much dissolved substance, low ones little dissolved substance. Consider `COc1ccc(C[C@H](NC(=O)[C@H](C)NC(=O)CN2CCOCC2)C(=O)N[C@@H](C[C@H]2CC[C@H](O)CC2)C(=O)[C@@]2(C)CO2)cc1` [Compound C-1002, (S)-N-((S)-3-((1r,4S)-4-hydroxycyclohexyl)-1-((R)-2-methyloxiran-2-yl)-1-oxopropan-2-yl)-3-(4-methoxyphenyl)-2-((S)-2-(2-morpholinoacetamido)propanamido)propanamide], for which the concentration in solution (solubility) came to 3190 µg/mL (≈ 5.29 mM).

In the case of `COc1ccc(C[C@H](NC(=O)[C@H](C)NC(=O)CN2CCOCC2)C(=O)N[C@@H](C[C@@H]2CCCO2)C(=O)[C@@]2(C)CO2)cc1` [Compound C-1016, (S)-3-(4-methoxyphenyl)-N-((S)-1-((R)-2-methyloxhan-2-yl)-1-oxo-3-((S)-tetrahydrofuran-2-yl)propan-2-yl)-2-((S)-2-(2-morpholinoacetamido)propanamido)propanamide], the solubility was 6890 µg/mL (≈ 12 mM).

Take `COc1ccc(C[C@H](NC(=O)[C@H](C)NC(=O)CN2CCOCC2)C(=O)N[C@@H](C[C@H]2CCOC2)C(=O)[C@@]2(C)CO2)cc1` [Compound C-1025, (S)-3-(4-methoxyphenyl)-N-((S)-1-((R)-2-methyloxiran-2-yl)-1-oxo-3-((S)-tetrahydrofuran-3-yl)propan-2-yl)-2-((S)-2-(2-morpholinoacetamido)propanamido) propanamide]: the “Solubility pH 7 (μg/mL)” value (pH 7) is given as over 10 μg/mL.

As for `COc1ccc(C[C@H](NC(=O)[C@H](C)NC(=O)CN2CCOCC2)C(=O)N[C@@H](CC2CNC(=O)C2)C(=O)[C@@]2(C)CO2)cc1` (stereo partly drawn) [Compound C-1035, (2S)-3-(4-methoxyphenyl)-N-((2S)-1-((R)-2-methyloxiran-2-yl)-1-oxo-3-(5-oxopyrrolidin-3-yl)propan-2-yl)-2-((S)-2-(2-morpholinoacetamido)propanamido)propanamide], the solubility was over 10 µg/mL.

The molecule `COc1ccc(C[C@H](NC(=O)[C@H](C)NC(=O)CN2CCOCC2)C(=O)N[C@@H](C[C@H]2CCN(C)C2=O)C(=O)[C@@]2(C)CO2)cc1` [Compound C-1040, (2S)-3-(4-methoxyphenyl)-N-((2S)-3-(1-methyl-2-oxopyrrolidin-3-yl)-1-((R)-2-methyloxiran-2-yl)-1-oxopropan-2-yl)-2-((S)-2-(2-morpholinoacetamido)propanamido) propanamide] showed a solubility of 12300 µg/mL (≈ 20.5 mM).

As for `COc1ccc(C[C@H](NC(=O)[C@H](C)NC(=O)CN2CCOCC2)C(=O)N[C@@H](CN2CCCC2=O)C(=O)[C@@]2(C)CO2)cc1` [Compound C-1042, (S)-3-(4-methoxyphenyl)-N-((S)-1-((R)-2-methyloxiran-2-yl)-1-oxo-3-(2-oxopyrrolidin-1-yl)propan-2-yl)-2-((S)-2-(2-morpholinoacetamido)propanamido)propanamide], the solubility is 8780 µg/mL (≈ 14.9 mM).

For the molecule `COc1ccc(C[C@H](NC(=O)[C@@H](C)NC(=O)[C@H]2CNC(=O)C2)C(=O)N[C@@H](CC2CCCC2)C(=O)[C@@]2(C)CO2)cc1` [Compound C-1067, (R)-N-((R)-1-(((S)-1-(((S)-3-cyclopentyl-1-((R)-2-methyloxiran-2-yl)-1-oxopropan-2-yl)amino)-3-(4-methoxyphenyl)-1-oxopropan-2-yl)amino)-1-oxopropan-2-yl)-5-oxopyrrolidine-3-carboxamide], the solubility was 4590 µg/mL (≈ 8.25 mM).

`COc1ccc(C[C@H](NC(=O)[C@@H](C)NC(=O)[C@@H]2CNC(=O)C2)C(=O)N[C@@H](CC2CCCC2)C(=O)[C@@]2(C)CO2)cc1` [Compound C-1068, (S)-N-((R)-1-(((S)-1-(((S)-3-cyclopentyl-1-((R)-2-methyloxiran-2-yl)-1-oxopropan-2-yl)amino)-3-(4-methoxyphenyl)-1-oxopropan-2-yl)amino)-1-oxopropan-2-yl)-5-oxopyrrolidine-3-carboxamide]: the concentration in solution (solubility) was 4410 µg/mL (≈ 7.92 mM).

As for `C[C@H](NC(=O)CN1CCOCC1)C(=O)N[C@@H](Cc1ccc2[nH]cnc2c1)C(=O)N[C@@H](CC1CCCC1)C(=O)[C@@]1(C)CO1` [Compound C-1069, (S)-3-(1H-benzo[d]imidazol-5-yl)-N-((S)-3-cyclopentyl-1-((R)-2-methyloxiran-2-yl)-1-oxopropan-2-yl)-2-((S)-2-(2-morpholinoacetamido)propanamido)propanamide], the concentration in solution (solubility) came to 3540 µg/mL (≈ 6.08 mM).

Consider `COc1ccc(C[C@H](NC(=O)[C@@H](C)NC(=O)[C@H]2CC[C@H](O)CC2)C(=O)N[C@@H](CC2CC(F)(F)C2)C(=O)[C@@]2(C)CO2)cc1` [Compound C-1073, (1r,4R)-N-((R)-1-(((S)-1-(((S)-3-(3,3-difluorocyclobutyl)-1-((R)-2-methyloxiran-2-yl)-1-oxopropan-2-yl)amino)-3-(4-methoxyphenyl)-1-oxopropan-2-yl)amino)-1-oxopropan-2-yl)-4-hydroxycyclohexanecarboxamide], for which the concentration in solution (solubility) came to 2180 µg/mL (≈ 3.67 mM).

For `COc1ccc(C[C@H](NC(=O)[C@@H](C)NC(=O)[C@@H]2CC[C@@H](O)C2)C(=O)N[C@@H](CC2CCCC2)C(=O)[C@@]2(C)CO2)cc1` [Compound C-1077, (1R,3R)-N-((R)-1-(((S)-1-(((S)-3-cyclopentyl-1-((R)-2-methyloxiran-2-yl)-1-oxopropan-2-yl)amino)-3-(4-methoxyphenyl)-1-oxopropan-2-yl)amino)-1-oxopropan-2-yl)-3-hydroxycyclopentanecarboxamide], the solubility is 1540 µg/mL (≈ 2.75 mM).

Take `COc1ccc(C[C@H](NC(=O)[C@@H](C)NC(=O)[C@@H]2CC[C@H](O)C2)C(=O)N[C@@H](CC2CCCC2)C(=O)[C@@]2(C)CO2)cc1` [Compound C-1078, (1R,3S)-N-((R)-1-(((S)-1-(((S)-3-cyclopentyl-1-((R)-2-methyloxiran-2-yl)-1-oxopropan-2-yl)amino)-3-(4-methoxyphenyl)-1-oxopropan-2-yl)amino)-1-oxopropan-2-yl)-3-hydroxycyclopentanecarboxamide]: the solubility was found to be 873 µg/mL (≈ 1.57 mM).

Take `C[C@H](NC(=O)CN1CCOCC1)C(=O)N[C@@H](Cc1ccc2c(c1)CC(=O)N2)C(=O)N[C@@H](CC1CCCC1)C(=O)[C@@]1(C)CO1` [Compound C-1081, (S)-N-((S)-3-cyclopentyl-1-((R)-2-methyloxiran-2-yl)-1-oxopropan-2-yl)-2-((S)-2-(2-morpholinoacetamido)propanamido)-3-(2-oxoindolin-5-yl)propanamide]: the solubility stood at 2760 µg/mL (≈ 4.62 mM).

`C[C@H](NC(=O)CN1CCOCC1)C(=O)N[C@@H](Cc1ccc(OC(F)(F)F)cc1)C(=O)N[C@@H](CC1CCCC1)C(=O)[C@@]1(C)CO1` [Compound C-1084, (S)-N-((S)-3-cyclopentyl-1-((R)-2-methyloxiran-2-yl)-1-oxopropan-2-yl)-2-((S)-2-(2-morpholinoacetamido)propanamido)-3-(4-(trifluoromethoxy)phenyl)propanamide] displayed a solubility of 125 µg/mL (≈ 0.2 mM).

For `C[C@H](NC(=O)CN1CCOCC1)C(=O)N[C@@H](Cc1ccc2c(c1)CCC(=O)N2)C(=O)N[C@@H](CC1CCCC1)C(=O)[C@@]1(C)CO1` [Compound C-1086, (S)-N-((S)-3-cyclopentyl-1-((R)-2-methyloxiran-2-yl)-1-oxopropan-2-yl)-2-((S)-2-(2-morpholinoacetamido)propanamido)-3-(2-oxo-1,2,3,4-tetrahydroquinolin-6-yl)propanamide], the concentration in solution (solubility) came to 3860 µg/mL (≈ 6.32 mM).

The molecule `C[C@H](NC(=O)CN1CCOCC1)C(=O)N[C@@H](Cc1ccc2c(c1)CCNS2(=O)=O)C(=O)N[C@@H](CC1CCCC1)C(=O)[C@@]1(C)CO1` [Compound C-1091, (S)-N-((S)-3-cyclopentyl-1-((R)-2-methyloxiran-2-yl)-1-oxopropan-2-yl)-3-(1,1-dioxido-3,4-dihydro-2H-benzo[e][1,2]thiazin-6-yl)-2-((S)-2-(2-morpholinoacetamido)propanamido)propanamide] had a solubility of 230 µg/mL (≈ 0.356 mM).

`COc1ccc(C[C@H](NC(=O)[C@H](C)NC(=O)CN2CCOCC2)C(=O)N[C@@H](CC2CC(F)(F)C2)C(=O)[C@@]2(C)CO2)cc1` [Compound C-1093, (S)-N-((S)-3-(3,3-difluorocyclobutyl)-1-((R)-2-methyloxiran-2-yl)-1-oxopropan-2-yl)-3-(4-methoxyphenyl)-2-((S)-2-(2-morpholinoacetamido)propanamido)propanamide] showed a solubility of 6110 µg/mL (≈ 10.3 mM).

For `COc1ccc(C[C@H](NC(=O)[C@H](C)NC(=O)CN2CCOCC2)C(=O)N[C@@H](C[C@H]2C[C@@H]3C[C@@H]3C2)C(=O)[C@@]2(C)CO2)cc1` [Compound C-1094, (S)-N-((S)-3-((1R,3s,5S)-bicyclo[3.1.0]hexan-3-yl)-1-((R)-2-methyloxiran-2-yl)-1-oxopropan-2-yl)-3-(4-methoxyphenyl)-2-((S)-2-(2-morholinoacetamido)propanamido)propanamide], the solubility worked out at 1670 µg/mL (≈ 2.86 mM).

`COc1ccc(C[C@H](NC(=O)[C@@H](C)NC(=O)C2CCN(C)CC2)C(=O)N[C@@H](CC2=CCCC2)C(=O)[C@@]2(C)CO2)cc1` [Compound C-1098, N-((R)-1-(((S)-1-(((S)-3-(cyclopent-1-en-1-yl)-1-((R)-2-methyloxiran-2-yl)-1-oxopropan-2-yl)amino)-3-(4-methoxyphenyl)-1-oxopropan-2-yl)amino)-1-oxopropan-2-yl)-1-methylpiperidine-4-carboxamide]: the concentration in solution (solubility) was 7830 µg/mL (≈ 13.8 mM).

`COc1ccc(C[C@H](NC(=O)[C@@H](C)NC(=O)[C@@H]2CCCN(C)C2)C(=O)N[C@@H](CC2=CCCC2)C(=O)[C@@]2(C)CO2)cc1` [Compound C-1099, (R)-N-((R)-1-(((S)-1-(((S)-3-(cyclopent-1-en-1-yl)-1-((R)-2-methyloxiran-2-yl)-1-oxopropan-2-yl)amino)-3-(4-methoxyphenyl)-1-oxopropan-2-yl)amino)-1-oxopropan-2-yl)-1-methylpiperidine-3-carboxamide] showed a solubility of 7310 µg/mL (≈ 12.9 mM).

As for `COc1ccc(C[C@H](NC(=O)[C@H](C)NC(=O)CN2CCOCC2)C(=O)N[C@@H](CC2=CCCCC2)C(=O)[C@@]2(C)CO2)cc1O` [Compound C-1100], the solubility was 4570 µg/mL (≈ 7.61 mM).

For `C[C@H](NC(=O)CN1CCOCC1)C(=O)NC(Cc1ccc2c(c1)COC(=O)N2)C(=O)N[C@@H](CC1CCCC1)C(=O)[C@@]1(C)CO1` (stereo partly drawn) [Compound C-1101, N-((S)-3-cyclopentyl-1-((R)-2-methyloxiran-2-yl)-1-oxopropan-2-yl)-2-((S)-2-(2-morpholinoacetamido)propanamido)-3-(2-oxo-2,4-dihydro-1H-benzo[d][1,3]oxazin-6-yl)propanamide], the solubility was determined as 4090 µg/mL (≈ 6.67 mM).

Values taken from patent USRE47302E1 (ONYX THERAPEUTICS INC., priority 2013, dated 2019).
